According to patent publication US6864217B2, “Herbicidal compositions with substituted phenylsulfonylureas for controlling weeds in rice” (Hoechst Schering AgrEvo GmbH, priority 1998, dated 2005):
Structures can show the parent of a compound that is named as a salt.

Experiments:
Polygonum convolvulus = assay: Table 25 field trial, treatment at the 3 leaf stage: weed control; format: in vivo; conditions: 33 days after application
Excerpt: (§1) Field trial: Treatment at the 3 leaf stage, evaluation 33 days after the application.

Oryza sativa [1] = assay: Table 20 field trial, treatment at the 4-6 leaf stage: rice damage; format: in vivo; conditions: 2.5 g of ai/ha, 28 days after application
Excerpt: Field trial: Treatment at the 4-6 leaf stage, evaluation 28 days after the application.

Oryza sativa [2] = assay: Table 3 field trial, treatment at the 4-5 leaf stage (seed rice): rice damage; conditions: 28 days after application
Procedure: (§5) The examples mentioned below were carried out in the greenhouse, and in some instances, in field trials.

Echinochloa crusgalli [3] = assay: Table 8 greenhouse trial, treatment at the 1-2 leaf stage: weed control; format: in vivo; conditions: 22 days after application
Excerpt: Seeds or rhizome pieces of mono- and dicotyledonous weed plants are placed into sandy loam soil in plastic pots, covered with soil and grown in a greenhouse under good growth conditions (temperature, atmospheric humidity, water supply). Weeds which are encountered in the cultivation of rice are cultivated in pots in which the water level is up to 2 cm over the soil surface. […] The active compound combinations according to the invention, formulated as wettable powders or emulsion concentrates, and, in parallel experiments, the correspondingly formulated individual active compounds are sprayed onto the green parts of the plants at different dosages using an amount of water of 300 to 600 l/ha (converted), and, after about 3 to 4 weeks of the test plants in the greenhouse under optimum growth conditions (temperature, atmospheric humidity, water supply), the effect of the preparations is evaluated visually in comparison to untreated controls. In the case of rice or weeds which are encountered in the cultivation of rice, the active compounds are also added directly to the water for irrigation (application analogous to the so-called granules application) or sprayed onto plants and added to the water for irrigation. The experiments were designed with several, up to five, repetitions. The herbicidal compositions according to the invention also have good herbicidal post-emergence activity against a broad spectrum of economically important weed grasses and broad-leaved weeds.

Sagittaria pygmaea [4] = assay: Table 14 greenhouse trial, treatment at the 3-4 leaf stage: weed control; format: in vivo; conditions: 21 days after application
Procedure: (§2) Seeds or rhizome pieces of mono- and dicotyledonous weed plants are placed into sandy loam soil in plastic pots, covered with soil and grown in a greenhouse under good growth conditions (temperature, atmospheric humidity, water supply). Weeds which are encountered in the cultivation of rice are cultivated in pots in which the water level is up to 2 cm over the soil surface. Three weeks after sowing, the test plants are treated at the three-leaf stage. The active compound combinations according to the invention, formulated as wettable powders or emulsion concentrates, and, in parallel experiments, the correspondingly formulated individual active compounds are sprayed onto the green parts of the plants at different dosages using an amount of water of 300 to 600 l/ha (converted), and, after about 3 to 4 weeks of the test plants in the greenhouse under optimum growth conditions (temperature, atmospheric humidity, water supply), the effect of the preparations is evaluated visually in comparison to untreated controls. In the case of rice or weeds which are encountered in the cultivation of rice, the active compounds are also added directly to the water for irrigation (application analogous to the so-called granules application) or sprayed onto plants and added to the water for irrigation. The experiments were designed with several, up to five, repetitions. The herbicidal compositions according to the invention also have good herbicidal post-emergence activity against a broad spectrum of economically important weed grasses and broad-leaved weeds.
Greenhouse trial: Treatment at the 3-4 leaf stage, evaluation 21 days after the application.

Cyperus serotinus = assay: Table 16 greenhouse trial, treatment at the 2-3 leaf stage: weed control; format: in vivo; conditions: 20 days after application
Procedure: as §2
(§3) Greenhouse trail: Treatment at the 2-3 leaf stage, evaluation 20 days after the application.

Echinochloa crusgalli [5] = assay: Table 5 field trial, treatment at the 2-4 leaf stage rice: weed control; format: in vivo; conditions: evaluation after 28 days
Procedure: as §5

Echinochloa crusgalli [6] = assay: Table 6 field trial, treatment at the 1-2 leaf stage: weed control; format: in vivo; conditions: 2 g of ai/ha, 28 days after application
Procedure: as §5

Oryza sativa [7] = assay: Table 16 greenhouse trial, treatment at the 2-3 leaf stage: rice damage; format: in vivo; conditions: 20 days after application
Procedure: as §2, §3

Echinochloa crusgalli [8] = assay: Table 7 field trial, treatment at the 1-2 leaf stage: weed control; format: in vivo; conditions: 2 g of ai/ha, 28 days after application
Procedure: as §5

Oryza sativa [9] = assay: Table 25 field trial, treatment at the 3 leaf stage: rice damage; format: in vivo; conditions: 33 days after application
Excerpt: as §1

Oryza sativa [10] = assay: Table 15 greenhouse trial, treatment at the 2-3 leaf stage: rice damage; format: in vivo; conditions: 20 days after application
Procedure: as §2

Sagittaria pygmaea [11] = assay: Table 22 field trial, treatment: 1-2 leaf stage: weed control; format: in vivo; conditions: 28 days after application
Excerpt: (§4) Field trial: Treatment: 1-2 leaf stage, evaluation 28 days after the application.

Leptochloa filiformis = assay: Table 2a field trial, treatment at the 2-3 leaf stage weed grasses: weed control; format: in vivo; conditions: 28 days after application
Procedure: as §5

Sagittaria pygmaea [12] = assay: Table 13 greenhouse trial, treatment at the 5-6 leaf stage: weed control; format: in vivo; conditions: 20 days after application
Procedure: as §2
Greenhouse trial: Treatment at the 5-6 leaf stage, evaluation 20 days after the application.

Oryza sativa [13] = assay: Table 21 field trial, treatment at the 2 leaf stage: rice damage; format: in vivo; conditions: 2.5 g of ai/ha; field trial, 28 days after application
Excerpt: Field trial: Treatment at the 2 leaf stage, evaluation 28 days after the application.

Oryza sativa [14] = assay: Table 5 field trial, treatment at the 2-4 leaf stage rice: rice damage; format: in vivo; conditions: evaluation after 28 days
Procedure: as §5

Oryza sativa [15] = assay: Table 6 field trial, treatment at the 1-2 leaf stage: rice damage; format: in vivo; conditions: 2 g of ai/ha; field trial, 28 days after application
Procedure: as §5

Cyperus iria = assay: Table 23 field trial, treatment: 4-6 leaf stage: weed control; format: in vivo; conditions: 36 days after application
Excerpt: Field trial: Treatment: 4-6 leaf stage, evaluation 36 days after the application.

Oryza sativa [16] = assay: Table 22 field trial, treatment: 1-2 leaf stage: rice damage; format: in vivo; conditions: 28 days after application
Excerpt: as §4

Eleusine indica = assay: Table 2 field trial, treatment at the 2-3 leaf stage weed grasses: weed control; format: in vivo; conditions: 28 days after application
Procedure: as §5

COC(=O)c1ccc(I)cc1S(=O)(=O)NC(=O)Nc1nc(C)nc(OC)n1 [A1*), Sodium salt of methyl 4-iodo-2-[3-(4-methoxy-6-methyl-1,3,5-triazin-2-yl)ureidosulfonyl]benzoate]
POLCO % control (Polygonum convolvulus; 1.25 g of ai/ha): 35%
POLCO % control (Polygonum convolvulus; 2.5 g of ai/ha): 80%
ORYSW % damage (Oryza sativa [1]): 8%
ORYSW % damage (Oryza sativa [2]; 0.75 g of ai/ha): 0%
ORYSW % damage (Oryza sativa [2]; 1.5 g of ai/ha): 0%
ORYSW % damage (Oryza sativa [2]; 2.5 g of ai/ha): 0%
ECHCG % control (Echinochloa crusgalli [3]; 1.5 g of ai/ha): 40%
ECHCG % control (Echinochloa crusgalli [3]; 3 g of ai/ha): 60%
SAGPY % control (Sagittaria pygmaea [4]; 1.5 g of ai/ha): 30%
SAGPY % control (Sagittaria pygmaea [4]; 3 g of ai/ha): 50%
CYPSE % control (Cyperus serotinus; 1.25 g of ai/ha): 10%
CYPSE % control (Cyperus serotinus; 2.5 g of ai/ha): 30%
CYPSE % control (Cyperus serotinus; 5 g of ai/ha): 50%
ECHCG % control (Echinochloa crusgalli [5]; 1.25 g of ai/ha): 0%
ECHCG % control (Echinochloa crusgalli [5]; 2.5 g of ai/ha): 0%
ECHCG % control (Echinochloa crusgalli [5]; 5 g of ai/ha): 0%
ECHCG % control (Echinochloa crusgalli [6]): 10%
ORYSW % damage (Oryza sativa [7]; 1.25 g of ai/ha): 5%
ORYSW % damage (Oryza sativa [7]; 2.5 g of ai/ha): 10%
ORYSW % damage (Oryza sativa [7]; 5 g of ai/ha): 10%
ECHCG % control (Echinochloa crusgalli [8]): 10%
ORYSW % damage (Oryza sativa [9]; 1.25 g of ai/ha): 6%
ORYSW % damage (Oryza sativa [9]; 2.5 g of ai/ha): 12%
ORYSW % damage (Oryza sativa [10]; 1.25 g of ai/ha): 5%
ORYSW % damage (Oryza sativa [10]; 2.5 g of ai/ha): 10%
ORYSW % damage (Oryza sativa [10]; 5 g of ai/ha): 10%
SAGPY % control (Sagittaria pygmaea [11]; 2.5 g of ai/ha): 20%
SAGPY % control (Sagittaria pygmaea [11]; 5 g of ai/ha): 40%
LEFFI % control (Leptochloa filiformis; 1.25 g of ai/ha): 0%
LEFFI % control (Leptochloa filiformis; 2.5 g of ai/ha): 73%
LEFFI % control (Leptochloa filiformis; 5 g of ai/ha): 72%
SAGPY % control (Sagittaria pygmaea [12]; 1.5 g of ai/ha): 30%
SAGPY % control (Sagittaria pygmaea [12]; 3 g of ai/ha): 50%
ORYSW % damage (Oryza sativa [13]): 8%
ORYSW % damage (Oryza sativa [14]; 1.25 g of ai/ha): 0%
ORYSW % damage (Oryza sativa [14]; 2.5 g of ai/ha): 0%
ORYSW % damage (Oryza sativa [14]; 5 g of ai/ha): 1%
ORYSW % damage (Oryza sativa [15]): 0%
CYPIR % control (Cyperus iria; 0.62 g of ai/ha): 53%
CYPIR % control (Cyperus iria; 1.25 g of ai/ha): 85%
CYPIR % control (Cyperus iria; 2.5 g of ai/ha): 98%
ORYSW % damage (Oryza sativa [16]; 2.5 g of ai/ha): 6%
ORYSW % damage (Oryza sativa [16]; 5 g of ai/ha): 12%
ELEIN % control (Eleusine indica; 1.25 g of ai/ha): 0%
ELEIN % control (Eleusine indica; 2.5 g of ai/ha): 0%
ELEIN % control (Eleusine indica; 5 g of ai/ha): 0%
